Experimental data reported in ChEMBL document CHEMBL5154787 (J Med Chem, 2022).

Tests used:
[1] = Genotoxicity in chinese hamster CHO cells in presence of metabolic activation system at 169 uM by IVMN assay; format: toxicity, cell-based, Cricetulus griseus
[2] = Solubility of compound at pH 2 measured after 24 hrs; format: physicochemical; settings: buffer
[3] = Solubility of compound at pH 3 measured after 24 hrs; format: physicochemical; settings: buffer
[4] = Solubility of compound at pH 4 measured after 24 hrs; format: physicochemical; settings: buffer
[5] = Protein binding in mouse brain assessed as unbound fraction at 1 uM measured after 4 hrs by LC/MS/MS analysis; format: ADME, tissue-based
[6] = Inhibition of cardiac sodium channel (unknown origin); set-up: species or system Homo sapiens
[7] = Plasma concentration in rat at 3 mg/kg, po measured after 4 hrs; format: ADME, organism-based
[8] = Drug concentration in rat spinal cord at 3 mg/kg, po measured after 4 hrs; format: ADME, organism-based; settings: read-out: Ct
[9] = Ratio of drug concentration in spinal cord to plasma in rat at 3 mg/kg, po measured at 4 hrs post dose; format: ADME, organism-based
[10] = target: TRAF2 and NCK-interacting protein kinase (Homo sapiens, UniProt Q9UKE5); experiment: Inhibition of TNIK (unknown origin)
TRAF2 and NCK-interacting protein kinase, sequence (Q9UKE5 whole entry): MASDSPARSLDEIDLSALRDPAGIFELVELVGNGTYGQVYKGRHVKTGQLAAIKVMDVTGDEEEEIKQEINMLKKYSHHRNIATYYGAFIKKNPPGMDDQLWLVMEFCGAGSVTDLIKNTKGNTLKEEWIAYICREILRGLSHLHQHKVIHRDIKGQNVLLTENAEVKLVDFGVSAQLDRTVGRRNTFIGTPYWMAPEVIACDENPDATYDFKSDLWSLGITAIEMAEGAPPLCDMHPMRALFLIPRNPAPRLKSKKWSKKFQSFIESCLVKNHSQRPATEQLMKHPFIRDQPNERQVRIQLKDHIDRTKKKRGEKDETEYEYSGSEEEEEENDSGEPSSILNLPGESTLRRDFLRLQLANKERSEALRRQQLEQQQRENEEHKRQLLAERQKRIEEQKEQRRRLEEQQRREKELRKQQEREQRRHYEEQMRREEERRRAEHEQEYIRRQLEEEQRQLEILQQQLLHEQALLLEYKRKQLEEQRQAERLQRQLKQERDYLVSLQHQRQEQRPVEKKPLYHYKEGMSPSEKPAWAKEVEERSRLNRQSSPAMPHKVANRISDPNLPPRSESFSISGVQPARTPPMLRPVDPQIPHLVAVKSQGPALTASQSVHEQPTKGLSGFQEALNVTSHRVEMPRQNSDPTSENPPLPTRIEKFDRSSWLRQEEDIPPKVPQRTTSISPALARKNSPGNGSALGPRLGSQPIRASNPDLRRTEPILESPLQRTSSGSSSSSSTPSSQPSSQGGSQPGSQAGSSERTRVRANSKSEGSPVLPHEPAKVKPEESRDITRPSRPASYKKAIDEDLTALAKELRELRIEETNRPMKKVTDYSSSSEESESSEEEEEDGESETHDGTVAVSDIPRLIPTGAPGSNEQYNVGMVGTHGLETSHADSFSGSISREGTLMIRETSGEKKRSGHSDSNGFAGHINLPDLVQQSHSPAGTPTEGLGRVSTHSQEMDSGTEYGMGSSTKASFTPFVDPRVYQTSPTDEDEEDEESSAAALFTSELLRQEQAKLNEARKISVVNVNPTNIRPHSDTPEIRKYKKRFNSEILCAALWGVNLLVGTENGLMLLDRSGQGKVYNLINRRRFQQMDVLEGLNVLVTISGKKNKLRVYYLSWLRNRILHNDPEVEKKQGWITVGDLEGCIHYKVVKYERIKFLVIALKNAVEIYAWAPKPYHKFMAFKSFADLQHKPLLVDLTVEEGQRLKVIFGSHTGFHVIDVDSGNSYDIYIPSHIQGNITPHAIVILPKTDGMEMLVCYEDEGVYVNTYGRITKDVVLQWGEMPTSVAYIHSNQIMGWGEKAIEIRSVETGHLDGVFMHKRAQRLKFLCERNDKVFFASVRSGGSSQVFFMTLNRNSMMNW

[11] = Protein binding in cynomolgus monkey plasma assessed as unbound fraction measured after 3 hrs by LC/MS/MS analysis; format: ADME, cell-free, Macaca fascicularis
[12] = target: AP2-associated protein kinase 1 (Homo sapiens, UniProt Q2M2I8); experiment: Inhibition of bacterially expressed GST-Xa-tagged human AAK1 using 5-FAM-labelled Aha-KEEQSQITSQVTGQIGWR-NH2 peptide as substrate incubated for 3 hrs in presence of ATP by electrophoretic analysis
AP2-associated protein kinase 1, sequence (Q2M2I8 whole entry): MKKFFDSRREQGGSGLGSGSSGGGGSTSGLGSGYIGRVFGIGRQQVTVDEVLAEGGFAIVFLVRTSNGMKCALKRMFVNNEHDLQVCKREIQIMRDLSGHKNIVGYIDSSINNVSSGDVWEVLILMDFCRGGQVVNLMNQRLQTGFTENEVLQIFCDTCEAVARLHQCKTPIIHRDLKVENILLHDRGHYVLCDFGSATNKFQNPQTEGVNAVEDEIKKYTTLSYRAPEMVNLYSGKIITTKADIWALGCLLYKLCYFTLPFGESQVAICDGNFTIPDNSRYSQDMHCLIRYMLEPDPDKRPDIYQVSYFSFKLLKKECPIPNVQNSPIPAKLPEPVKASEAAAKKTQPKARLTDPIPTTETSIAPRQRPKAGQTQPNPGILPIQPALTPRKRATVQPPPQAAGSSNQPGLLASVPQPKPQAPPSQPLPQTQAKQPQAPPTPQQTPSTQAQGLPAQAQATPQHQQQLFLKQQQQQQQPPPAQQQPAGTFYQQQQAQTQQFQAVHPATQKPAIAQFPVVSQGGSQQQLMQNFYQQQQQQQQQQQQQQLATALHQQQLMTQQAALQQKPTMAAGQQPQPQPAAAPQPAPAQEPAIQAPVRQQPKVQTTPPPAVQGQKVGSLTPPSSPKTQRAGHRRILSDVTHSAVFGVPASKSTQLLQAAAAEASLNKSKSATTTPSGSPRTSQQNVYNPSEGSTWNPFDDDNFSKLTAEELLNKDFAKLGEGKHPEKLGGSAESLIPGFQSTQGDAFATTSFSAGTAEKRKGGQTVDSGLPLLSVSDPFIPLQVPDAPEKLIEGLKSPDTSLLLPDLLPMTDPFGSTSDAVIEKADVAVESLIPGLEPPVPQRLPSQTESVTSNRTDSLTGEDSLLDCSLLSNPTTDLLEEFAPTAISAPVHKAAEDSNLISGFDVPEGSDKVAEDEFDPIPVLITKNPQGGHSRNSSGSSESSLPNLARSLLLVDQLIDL

[13] = target: T1, Homeodomain-interacting protein kinase 4 (Homo sapiens, UniProt Q8NE63); experiment: Inhibition of HIPK4 (unknown origin)
T1 sequence (Q8NE63 whole entry): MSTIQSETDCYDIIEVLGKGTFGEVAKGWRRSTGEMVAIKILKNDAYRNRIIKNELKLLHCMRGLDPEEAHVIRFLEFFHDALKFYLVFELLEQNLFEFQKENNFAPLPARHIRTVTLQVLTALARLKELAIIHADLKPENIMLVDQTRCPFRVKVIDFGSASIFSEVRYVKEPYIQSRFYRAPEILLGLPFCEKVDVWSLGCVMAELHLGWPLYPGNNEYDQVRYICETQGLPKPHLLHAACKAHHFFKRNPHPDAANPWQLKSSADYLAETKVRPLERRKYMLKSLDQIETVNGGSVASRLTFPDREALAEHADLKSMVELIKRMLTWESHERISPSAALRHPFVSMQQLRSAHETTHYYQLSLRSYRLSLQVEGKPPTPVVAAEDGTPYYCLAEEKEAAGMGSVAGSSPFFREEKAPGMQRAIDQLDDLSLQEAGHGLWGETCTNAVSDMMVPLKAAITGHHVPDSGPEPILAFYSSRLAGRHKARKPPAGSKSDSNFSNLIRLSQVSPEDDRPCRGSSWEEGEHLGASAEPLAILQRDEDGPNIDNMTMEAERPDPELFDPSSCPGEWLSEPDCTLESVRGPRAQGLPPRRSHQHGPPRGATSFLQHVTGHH

COC(=O)Nc1cc(-c2ccc(OC[C@@](C)(N)CC(C)C)c(C)n2)ccn1
Activity [1]: Non-Toxic | solubility at 24 h [2]: > 1000 µg/mL | solubility at 24 h [3]: > 1000 µg/mL | solubility at 24 h [4]: > 1000 µg/mL

CC(C)C[C@](C)(N)COc1cnc(-c2ccnc(C(F)F)c2)cc1C(F)F
fraction unbound at 4 h, 1 µM [5]: 0.018 | IC50 [6]: 5400 nM | concentration at 4 h [7]: 47 nM | concentration at 4 h [8]: 825 nM | Kp at 4 h [9]: 17.6 | IC50 [10]: 2000 nM | fraction unbound at 3 h [11]: 0.075

COC(=O)Nc1cc(-c2cnc(OC[C@@](C)(N)CC(C)C)c(C)c2)ccn1
IC50 [12]: 0.9 nM | IC50 [13]: 1800 nM
